Where a name gives a salt, the structure may show the parent alone. Each block holds one compound with its values, some of them ahead of it.
Tests used:
Solubility in water = format: physicochemical; settings: salt form as named
From the text: 2-Amino-5,6-dichloro-3,4-dihydroquinazoline (compound (E) wherein X and Y are both Cl) is the preferred compound for use in reducing the platelet count in patients and is preferably provided as the hydrobromide salt which is water soluble.

[1] = tested on: circulating platelet levels; assay: Daily intraperitoneal injection in mice, circulating platelet levels and safety; format: in vivo
Description: Administration of 100 μg/day of the preferred compound was sufficient to decrease platelet counts within 24-48 hours stabilizing to 50% of normal by day 5.

megakaryocytic lineage = assay: Inhibition of megakaryocytic endoreplication; format: cell-based
CD15+ myeloid lineage = assay: Effect on the CD15+ myeloid lineage in vitro; format: cell-based
platelet aggregation = assay: Platelet aggregation; format: cell-based; settings: even at high concentrations (10 μg/mL)
[2] = Cardiovascular screening and side effect profile of the compound; format: in vivo
platelet count = assay: Platelet reducing properties; settings: in vivo
[3] = In vitro metabolism of Anagrelide in rat liver microsomes; format: in vitro ADME
From the text: (§1) Metabolism of Anagrelide was examined in a number of in vitro systems including rat and human liver microsomes, human whole blood, human bone marrow cells and rat intestinal mucosa. […] It appears that in vivo metabolism occurs by a route that cannot be readily mimicked in vitro. It is hypothesized that the first step of in vivo metabolism involves hydroxylation of the carbon α to the carbonyl followed by amide hydrolysis and loss of the elements of glyoxylic acid.

[4] = In vitro metabolism of Anagrelide in human liver microsomes; format: in vitro ADME
From the text: as §1

[5] = In vitro metabolism of Anagrelide in human whole blood; format: in vitro ADME
From the text: as §1

[6] = In vitro metabolism of Anagrelide in human bone marrow cells; format: in vitro ADME
From the text: as §1

[7] = In vitro metabolism of Anagrelide in rat intestinal mucosa; format: in vitro ADME
From the text: as §1

[8] = set-up: species or system Rhesus Monkeys; settings: rhesus monkey, in vivo
From the text: In a recent pharmacokinetic and excretion study of [^14C]

[9] = clinical use of Anagrelide; cited from earlier work
[10] = cited from earlier work

Structure (SMILES): Br.NC1=Nc2ccc(Cl)c(Cl)c2CN1 [2-amino-5,6-dichloro-3,4-dihydroquinazoline hydrobromide]
- solubility in water (Solubility in water): water soluble
- circulating platelet levels ([1]; 6- to 8-month old mice, daily intraperitoneal injection): dose-dependent decrease
- time to decrease in platelet counts ([1]; mice, 100 μg/day intraperitoneal): 24 to 48 h
- platelet counts stabilized level ([1]; mice, 100 μg/day intraperitoneal, by day 5): 50 % of normal
- apparent signs of toxicity or haemorrhaging ([1]; mice, high doses (300 μg)): did not alter white blood cell counts, bleeding time or lead to any apparent signs of toxicity or haemorrhaging
- inhibition of megakaryocytic endoreplication (megakaryocytic lineage): profound inhibition
- dose for inhibition of megakaryocytic endoreplication relative to doses reported for Anagrelide (megakaryocytic lineage; compared with those reported for Anagrelide): 500 times less
- effect on the CD15+ myeloid lineage (CD15+ myeloid lineage): no effect
- inhibition of platelet aggregation (platelet aggregation): did not inhibit platelet aggregation

Structure (SMILES): NC1=Nc2ccc(Cl)c(Cl)c2CN1 [2-amino-5,6-dichloro-3,4-dihydroquinazoline]
- antihypertensive activity ([2]; cardiovascular screening): Only very mild antihypertensive activity
- side effects of inotropy and haemorrhaging associated with Anagrelide ([2]; in vivo): without the side effects of inotropy and haemorrhaging
- reduction of platelet counts (platelet count): active molecule for causing reduction of platelet counts

- solubility in water (Solubility in water): nearly insoluble in water
Structure (SMILES): O=C1CN2Cc3c(ccc(Cl)c3Cl)N=C2N1 [Anagrelide hydrochloride]

- metabolism in vitro [3]: completely resistant to metabolism
- metabolism in vitro [4]: completely resistant to metabolism
- metabolism in vitro [5]: completely resistant to metabolism
- metabolism in vitro [6]: completely resistant to metabolism
- metabolism in vitro [7]: completely resistant to metabolism
Structure (SMILES): O=C1CN2Cc3c(ccc(Cl)c3Cl)N=C2N1 [Anagrelide, 6,7-dichloro-1,5-dihydroimidazo-[2,1-b]-quinazolin-2(3H)-one]
- detection of the human metabolite 2-amino-5,6-dichloro-3,4-dihydroquinazoline [8]: no human metabolite (2-amino-5,6-dichloro-3,4-dihydroquinazoline) was detected
- congestive heart failure (cardiovascular side effect incidence) [9]: 1.5%
- palpitations (cardiovascular side effect incidence) [9]: 26.1%
- tachycardia (cardiovascular side effect incidence) [9]: 7.5%
- vasodilation (cardiovascular side effect incidence) [9]: < 5%
- Anagrelide dose excreted as unchanged drug in the urine ([10]; human subjects): < 1%
- peak plasma concentrations of the parent drug ([10]; human subjects): 6 ng/mL
- urinary radioactivity accounted for by a minimum of four to five metabolites ([10]; human, in vivo): over 75%
